Assay results from patent US20030176436A1, “Novel heterocyclic compounds as selective bacterial DHFR inhibitors and their uses thereof” (priority 2001, published 2003).
Converted amounts (≈) assume the structure as drawn. Where two headings read alike, the source gives them in different places.

Key:
[1] = system: S. pneumoniae; assay: Microdilution antimicrobial susceptibility test (MIC); format: cell-based; conditions: Streptococcus pneumoniae; Table 2; 90% inhibition of growth
Experimental: (§1) Stock solutions of tested compounds were prepared in N,N-dimethylformamide (DMF) at a concentration of 5 mg/mL. Working solutions of the tested compounds were then prepared from the stock solutions, in Mueller-Hinton broth (MHB) with a starting concentration of 64 μg/mL.
(§2) Bacterial inocula were prepared from overnight culture (i.e., one fresh colony from agar plate in 5 ml MHB; H. influenzae was grown in MHB with the addition of yeast extract, haematin, and NAD), centrifuged 2×5 min/3000 rpm (for S. pneumoniae and H. influenzae, 2×10 min/3000 rpm), and dispensed in 5 ml of fresh MHB each time, such that the bacterial suspension is diluted to obtain 100 colony forming units (cfu) in a microplate well (100 μl total volume).
(§3) Microplate wells were filled with two-fold dilutions of test compound (50 μl), starting with 64 μg/ml. Wells were then filled with 50 μl of bacterial inoculum (final volume: 100 μl/well). The plates were incubated at 37° C. for 18-24 hours (S. pneumoniae was grown in a CO2-enriched atmosphere).

[2] = system: E. faecalis; assay: as above; format: cell-based; conditions: Enterococcus faecalis; Table 2; 90% inhibition of growth
Experimental: as §1, §2, §3

[3] = system: M. catarrhalis; assay: as above; format: cell-based; conditions: Moraxella catarrhalis; Table 2; 90% inhibition of growth
Experimental: as §1, §2, §3

[4] = system: H. influenzae; assay: as above; format: cell-based; conditions: Haemophilus influenzae; Table 2; 90% inhibition of growth; read-out: MIC H. influenzae
Experimental: as §1, §2, §3

[5] = system: S. aureus; assay: as above; format: cell-based; conditions: Staphylococcus aureus
Experimental: as §1, §2, §3

[6] = system: E. coli; assay: as above; format: cell-based; conditions: Escherichia coli; Table 2; 90% inhibition of growth
Experimental: as §1, §2, §3

[7] = system: P. aeruginosa; assay: as above; format: cell-based; conditions: Pseudomonas aeruginosa; Table 2; 90% inhibition of growth
Experimental: as §1, §2, §3

[8] = target: T1, bacterial DHFR (bDHFR) (Escherichia coli, UniProt P0ABQ4); assay: DHFR enzyme assay, Ki determination, bacterial DHFR; format: biochemical, E. coli
T1 construct: gift of Eric Brown, McMaster University
Experimental: Human and Bacterial DHFR: E. coli DHFR was kindly provided by Eric Brown of MacMaster University.
(§4) Dihydrofolic acid and NADPH were purchased from Sigma. Enzyme assays were adapted for microtitre format from a previously published procedure (2, 3). All assays were performed in a 250 μl volume in 96-well microtitre plates. Typical assays consisted of 20 nM DHFR (human or E. coli), 100 μM NADPH, and 50 μM dihydrofolic acid in 100 mM HEPES pH 8, 10 mM KCl, and 10 mM MgCl2. The assay was monitored spectrophotometrically for the conversion of NADPH to NADP+, which results in a decrease in absorbance at 340 nm.
(§5) The reaction was initiated by the addition of 125 μl of 100 μM dihydrofolic acid. The final concentrations in the assay were 20 nM DHFR, 100 μM NADPH, 50 μM dihydrofolic acid, and a range of 500 μM to 20 nM inhibitor compound. The final DMSO concentration was 2% of the total volume. Reactions were monitored as described above.

[9] = system: S. cerevisiae; assay: Microdilution susceptibility test (MIC), yeast as indicator of cytotoxicity; format: cell-based; conditions: Saccharomyces cerevisiae; Table 2; 90% inhibition of growth
Source text: The following table of compounds of one aspect of the invention have potent antimicrobial activity against S. aureus bacteria and are anticipated to have physical-chemical properties similar to those of orally absorbed and bioavailable drugs and drug-like compounds. Antibacterial activity for a variety of bacterial species are shown (S. aureus, S. pneumoniae, E. faecalis, M. catarrhalis, and H. influenzae). The yeast cell (S. cerevisiae) in this panel of organisms is an indicator of potential cytotoxicity in mammalian cells.
as §1, §3

[10] = target: T2, human DHFR (hDHFR) (Homo sapiens, UniProt P00374); assay: DHFR enzyme assay, Ki determination, human DHFR; format: biochemical; conditions: Table 3
T2 construct: result in the amplification of a 186 amino acid hDHFR coding region; made in house; host or cells: E. coli Top10
T2 sequence (P00374 1-187): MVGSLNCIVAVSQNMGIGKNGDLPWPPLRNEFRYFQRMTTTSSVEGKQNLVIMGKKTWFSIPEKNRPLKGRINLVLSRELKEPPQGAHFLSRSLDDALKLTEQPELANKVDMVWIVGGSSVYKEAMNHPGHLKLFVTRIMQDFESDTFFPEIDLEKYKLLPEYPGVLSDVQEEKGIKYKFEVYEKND
Experimental: The human DHFR cDNA was cloned by PCR from the Human Universal Quick-clone™ cDNA purchased from Clontech.
The PCR fragment was digested with restriction enzymes NdeI and HindIII, and then ligated into a derivative of the pKK223-3 expression vector (Amersham Pharmacia). The final expression vector (pFW96.2) was transformed into E. coli Top10 F40 and hDHFR protein was induced by the addition of 1 mM IPTG followed by incubation at 37° C. for 4 hrs. Recombinant human DHFR was purified based on a previously published procedure (2).
as §4
as §5, with “Five microliters of inhibitor compound in DMSO was added to 120 μl of enzyme solution (40 nM DHFR and 200 μM NADPH). The reaction” for “The reaction”
V=(Vmax[S])/(Km(1+I/Ki)+[S]), where S=dihydrofolate, Km=Michaelis constant for dihydrofolate, I=inhibitor concentration.

[11] = system: S. aureus; assay: S. aureus mouse septicaemia model; format: in vivo; conditions: administered orally; mouse protection model
Experimental: Systemic models of infection are described in the literature. The following conditions can be used to assay the compounds in this application. Bacteria are grown in Mueller-Hinton agar at 37° C. during 24 h. For each experiment, a bacterial suspension is prepared by inoculating 4-5 bacterial colonies onto Mueller-Hinton broth (MHB) and by incubating at 37° C. for 24 hours to yield approximately 10^9 CFU/ml. BalbC female mice are supplied by Charles River (Deutschland). Animals are infected by a single administration of an LD100 dose of bacterial culture suspension (1×10^8 CFU/100 μl per animal) in the tail vein. A careful clinical examination is made several times a day, and obvious clinical symptoms and mortality are recorded. Animals survival is observed for a period of 6 days. Azithromycin is dissolved in 0.5% methocel in saline solution and administered orally. Test compounds are micronized with mortar and pestle and then dissolved in methocel saline solution with 3% of DMF. The first dose is administered 30 minutes after infection, with following doses every 12 hours for 3 days.
In vivo Efficacy Testing—S. aureus Mouse Septicaemia Model.
Several compounds were tested in a S. aureus mouse protection models for efficacy. Two compounds, 25 and 62, protected 40% of treated animals from the lethal infection when administered orally.

[12] = Table 2, 90% inhibition of growth, read-out: MIC S. aureus

Row | Compound | MIC [1] [µg/mL] | MIC [2] [µg/mL] | MIC [3] [µg/mL] | MIC [4] [µg/mL] | MIC [5, 12] [µg/mL] | MIC [6] [µg/mL] | MIC [7] [µg/mL] | Ki ([8]; Table 3, read-out: bDHFR Ki) [µM] | MIC [9] [µg/mL] | Ki [10] [nM] | treated animals protected from the lethal infection [11] [%] | MIC ([5]; MIC, average, read-out: S. aureus (μg/ml) avg) [µg/mL] | Ki ([8]; average, read-out: bDHFR Ki/(μM) avg) [µM] | Ki ([8]; second part of table, read-out: bDHFR) [µM]
1 | COC(=O)c1ccc(N(C)Cc2cnc3nc(N)nc(N)c3n2)cc1 [Compound 17] | < 2 | < 2 | < 2 | < 2 | < 2 | > 64 | > 64 | < 0.1 | > 64 | – | – | – | – | –
2 | Nc1nc(N)c2nc(CNc3ccccc3)cnc2n1 [Compound 6] | 2 to 8 (≈ 7.48 to 29.9 µM) | 2 to 8 (≈ 7.48 to 29.9 µM) | 2 to 8 (≈ 7.48 to 29.9 µM) | 2 to 8 (≈ 7.48 to 29.9 µM) | 2 to 8 (≈ 7.48 to 29.9 µM) | > 64 | > 64 | 1 to 5 | > 64 | > 5000 | – | – | – | –
3 | CN(Cc1cnc2nc(N)nc(N)c2n1)c1ccc(C(=O)Nc2ccc(O)cc2)cc1 [Compound 1] | < 2 | 16 to 64 (≈ 38.4 to 154 µM) | 2 to 8 (≈ 4.8 to 19.2 µM) | 2 to 8 (≈ 4.8 to 19.2 µM) | 16 to 64 (≈ 38.4 to 154 µM) | > 64 | > 64 | < 0.1 | > 64 | 500 to 999 | – | – | – | –
4 | CN(Cc1cnc2nc(N)nc(N)c2n1)c1cccc([N+](=O)[O-])c1 [Compound 14] | < 2 | < 2 | < 2 | < 2 | < 2 | > 64 | > 64 | < 0.1 | > 64 | > 5000 | – | – | – | –
5 | Nc1nc(N)c2nc(CNc3cccc(OCc4ccccc4)c3)cnc2n1 [Compound 16] | < 2 | < 2 | < 2 | > 64 | < 2 | > 64 | > 64 | < 0.1 | > 64 | > 5000 | – | – | – | –
6 | CN(Cc1cnc2nc(N)nc(N)c2n1)c1ccc(C(=O)NCc2cccnc2)cc1 [Compound 4] | 2 to 8 (≈ 4.81 to 19.3 µM) | 2 to 8 (≈ 4.81 to 19.3 µM) | 16 to 64 (≈ 38.5 to 154 µM) | 2 to 8 (≈ 4.81 to 19.3 µM) | 16 to 64 (≈ 38.5 to 154 µM) | > 64 | > 64 | < 0.1 | > 64 | 500 to 999 | – | – | – | –
7 | CC(c1csc2ccccc12)N(C)c1ncc2c(N)nc(N)nc2n1 (centres unmarked) [Compound 25] | – | – | – | – | – | – | – | – | – | – | 40 | 0.25 (≈ 0.711 µM) | 0.004 | < 0.004
8 | CN(Cc1cnc2nc(N)nc(N)c2n1)c1ccc(C(=O)NCc2ccccn2)cc1 [Compound 3] | 2 to 8 (≈ 4.81 to 19.3 µM) | 2 to 8 (≈ 4.81 to 19.3 µM) | 2 to 8 (≈ 4.81 to 19.3 µM) | 2 to 8 (≈ 4.81 to 19.3 µM) | 2 to 8 (≈ 4.81 to 19.3 µM) | > 64 | > 64 | < 0.1 | > 64 | 1000 to 5000 | – | – | – | –
9 | Nc1nc(N)c2nc(CNc3ccc(F)c([N+](=O)[O-])c3)cnc2n1 [Compound 15] | < 2 | < 2 | < 2 | < 2 | < 2 | > 64 | > 64 | 0.1 to 0.499 | 2 to 8 (≈ 6.06 to 24.2 µM) | > 5000 | – | – | – | –
